Experiments:
[1] = biological target: T1, human GlyT1 (hGlyT1) (Homo sapiens, UniProt P48067); experiment: [3H]glycine uptake inhibition in Flp-in-CHO cells; format: cell-based
T1 sequence (P48067 1-706): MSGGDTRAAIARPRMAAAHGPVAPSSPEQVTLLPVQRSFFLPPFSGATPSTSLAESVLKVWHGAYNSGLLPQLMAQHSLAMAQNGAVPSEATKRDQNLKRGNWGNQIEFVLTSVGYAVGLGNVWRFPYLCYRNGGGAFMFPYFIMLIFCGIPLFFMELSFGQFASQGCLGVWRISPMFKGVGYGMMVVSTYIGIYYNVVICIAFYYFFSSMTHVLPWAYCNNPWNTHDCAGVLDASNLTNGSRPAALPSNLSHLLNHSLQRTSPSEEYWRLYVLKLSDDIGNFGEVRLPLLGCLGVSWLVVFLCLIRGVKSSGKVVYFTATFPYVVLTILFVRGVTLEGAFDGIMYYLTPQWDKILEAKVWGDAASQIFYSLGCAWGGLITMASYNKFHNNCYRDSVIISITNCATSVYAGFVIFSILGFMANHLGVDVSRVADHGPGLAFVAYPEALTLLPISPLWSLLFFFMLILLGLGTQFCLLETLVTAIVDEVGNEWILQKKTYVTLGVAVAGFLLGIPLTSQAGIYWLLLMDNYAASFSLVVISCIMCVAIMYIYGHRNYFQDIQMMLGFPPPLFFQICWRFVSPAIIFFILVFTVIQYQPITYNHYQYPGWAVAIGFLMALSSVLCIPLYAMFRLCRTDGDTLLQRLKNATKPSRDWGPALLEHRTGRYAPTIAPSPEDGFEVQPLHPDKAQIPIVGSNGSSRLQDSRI

[2] = biological target: T2, GlyT1^minimal (Homo sapiens, UniProt P48067); experiment: CPM thermofluor; format: binding; conditions: 10 uM Cmpd1; 0.73 uM protein; pH 7.5; LMNG
T2 sequence (P48067 91-684): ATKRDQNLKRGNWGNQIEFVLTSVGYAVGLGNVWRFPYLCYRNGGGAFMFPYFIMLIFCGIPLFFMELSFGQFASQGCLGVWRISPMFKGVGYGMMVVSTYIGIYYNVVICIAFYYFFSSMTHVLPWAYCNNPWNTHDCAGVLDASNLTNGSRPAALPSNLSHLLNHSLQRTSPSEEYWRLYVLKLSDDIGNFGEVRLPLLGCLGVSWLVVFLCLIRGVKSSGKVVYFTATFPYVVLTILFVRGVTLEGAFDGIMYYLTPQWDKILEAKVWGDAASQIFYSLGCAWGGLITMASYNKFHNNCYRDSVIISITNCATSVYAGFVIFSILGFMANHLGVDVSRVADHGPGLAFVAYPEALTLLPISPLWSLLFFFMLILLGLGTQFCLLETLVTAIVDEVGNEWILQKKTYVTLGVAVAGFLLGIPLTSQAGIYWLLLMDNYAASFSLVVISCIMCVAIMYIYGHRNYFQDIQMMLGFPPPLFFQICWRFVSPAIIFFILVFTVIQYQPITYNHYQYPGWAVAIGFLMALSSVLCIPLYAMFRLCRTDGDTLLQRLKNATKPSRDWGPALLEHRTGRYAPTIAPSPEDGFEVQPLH

[3] = biological target: T1, human GlyT1 (hGlyT1); experiment: [3H]Org24598 membrane competition, filtration; format: binding

**Q.** `CS(=O)(=O)c1ccc(OCC(F)(F)C(F)(F)F)c(C(=O)N2Cc3ccc(OC4CCOCC4)cc3C2)c1` [Cmpd1] was tested. Which IC50 [1] did it give?
**A.** 26.4 nM

**Q.** What about the “increase in melting point” value [2] of the same compound?
**A.** 30.5 °C

**Q.** And the IC50 [3]?
**A.** 12.5 nM
